How the values were obtained:
[1] = Buffer control for chemical instability in the incubation buffer; format: physicochemical; details: Kphos buffer pH 7.4, 37° C., no microsomes, minus NADPH
[2] = Metabolic stability and noribogaine formation in rat liver microsomes (RLM); details: for Percentage turnover of test compounds (percent remaining): 10 μM, +NADPH; for % Remaining at 60 min (+NADPH): summary; for % Remaining at 60 min (−NADPH): without NADPH; for half-life at 10 μM: male, rat, microsomes, pH 7.4
Experimental: (§1) Metabolism Studies. Metabolic stability of test compounds was evaluated in liver microsomes from rat (RLM) and human (HLM). This was accomplished by incubating test compounds with microsomes and monitoring disappearance of parent compound as well as metabolite formation over time using LC-MS/MS in Multiple Reaction Monitoring mode (MRM).
(§2) Stock solutions of test compounds were prepared in DMSO at a concentration of 10 mM.
(§3) Total Incubation volume: 100 μL
(§4) Compound concentration: 10 μM
(§5) Protein Concentration: 0.5 mg/mL (0.25 mg/mL for positive controls)
(§6) From the above mix, 70 PL was added to individual wells of 96 well reaction plates and pre-incubated at 37° C. for 5 min. […] Reactions without NADPH and buffer controls (minus NADPH) at 0 min and 60 min were also incubated to rule out non-NADPH metabolism or chemical instability in the incubation buffer. All reactions were terminated using 100 μL of ice-cold acetonitrile containing internal standard (glipizide) at 0, 5, 15, 30 and 60 min.
(§7) Stock solution of noribogaine was prepared in DMSO at a concentration of 20 mM and serially diluted in DMSO to prepare 10, 3, 1, 0.3, 0.1 and 0.03 mM solutions respectively.
(§8) Samples were monitored for parent compounds disappearance and formation of metabolite in MRM mode using LC-MS/MS instrument (API-4000 with Waters UPLC).
(§9) The percent remaining of test compounds and positive control in each sample was determined by considering peak area ratio in the 0 minute sample as 100%.
(§10) In vitro intrinsic clearance (CL′int) (units in mL/min/kg) was calculated using the formula: […]
(§11) For human, monkey, dog, rat and mouse the liver weight are 20 gm, 32 gm, 32 gm, 40 gm and 90 gm respectively.

[3] = Plasma pharmacokinetics and brain distribution in male Wistar rats after a single intraperitoneal dose
Experimental: Formulation strengths for intraperitoneal administration was 4 mg/mL. A weighed quantity of compound was combined with an appropriate volume of vehicle (10% ethanol and 90% normal saline), the mixture was warmed to 55° C. and vortexed until a clear yellowish solution was obtained. The dosing volume administered was 10 mL/kg for intraperitoneal route.
Healthy male Wistar rats (8-12 weeks old) weighing between 280 to 300 g were procured from Global, India. Three rats were housed in each cage. […] Temperature and humidity were recorded by auto-controlled data logger system. All the animals were provided laboratory rodent diet (Envigo Research private Ltd, Hyderabad). Reverse osmosis water treated with ultraviolet light was provided ad libitum.
Blood samples (approximately 120 μL) were collected under light isoflurane anesthesia from retro orbital plexus from a set of three rats at specified time intervals. Samples were collected into labeled micro-tubes, containing K2EDTA solution (10 μL of 20% K2EDTA of solution per mL of blood) as an anticoagulant. Plasma was immediately harvested from the blood by centrifugation at 4000 rpm for 10 min at 4±2° C. and stored below −70±10° C. until bioanalysis.
Immediately, after blood collection animals were euthanized with excess CO2 and brain was isolated at each time point. Brain was rinsed three times in ice cold PBS (for 5-10 seconds/rinse using ˜5-10 mL fresh PBS in disposable petri dish for each rinse) and dried on blotting paper. Brain samples were homogenized using ice-cold phosphate buffer saline (pH 7.4) and homogenates were stored below −70±10° C. until analysis. Total homogenate volume was three times the tissue weight.
The extraction procedure for plasma and brain samples and the spiked plasma and brain calibration standards were identical: A 25 PL of study sample or spiked plasma and brain calibration standard was added to individual pre-labeled micro-centrifuge tubes followed by 100 PL of internal standard prepared in Acetonitrile (Glipizide, 500 ng/mL) was added except for blank, where 100 μL of Acetonitrile was added. Samples were vortexed for 5 minutes and then centrifuged for 10 minutes at a speed of 4000 rpm at 4° C. Following centrifugation, 100 μL of clear supernatant was transferred to a 96 well plate and analyzed using LC-MS/MS.
Non-compartmental analysis tool of Phoenix WinNonlin® (Version 7.0) was used to assess the pharmacokinetic parameters. Peak plasma concentrations (Cmax) and time for the peak plasma concentrations (Tmax) were the observed values. The areas under the concentration time curve (AUClast and AUCinf) were calculated by linear trapezoidal rule. The terminal elimination rate constant, ke was determined by regression analysis of the linear terminal portion of the log plasma concentration-time curve.

in vitro = assay: in vitro
Experimental: as §1, §2, §3, §4, §5, §6, §7, §8, §9, §10, §11

[4] = 0.08 h after CD3O-ibogamine 40 mg/kg i.p.
[5] = 0.5 h after CD3O-ibogamine 40 mg/kg i.p.
[6] = 1 h after CD3O-ibogamine 40 mg/kg i.p.
[7] = 2 h after CD3O-ibogamine 40 mg/kg i.p.
[8] = 3 h after CD3O-ibogamine 40 mg/kg i.p.
[9] = male, Wistar, rat, in vivo, ip, 40 mg/kg, brain, analyte after CD3O-ibogamine 40 mg/kg i.p.
[10] = male, Wistar, rat, in vivo, ip, 40 mg/kg, plasma, analyte after CD3O-ibogamine 40 mg/kg i.p.

[2H]C([2H])([2H])Oc1ccc2[nH]c3c(c2c1)CCN1C[C@H]2C[C@H](CC)C1[C@H]3C2 [CD3O-ibogamine]
% Remaining at 60 min (Buffer) [1]: 90%
CLh, int ([2]; RLM): 742 mL/min/kg
t1/2 ([2]; RLM): <5 min
Percentage turnover of test compounds (percent remaining) ([2]; RLM, 0 min): 100%
Percentage turnover of test compounds (percent remaining) ([2]; RLM, 5 min): 36%
Percentage turnover of test compounds (percent remaining) ([2]; RLM, 15 min): 0%
Percentage turnover of test compounds (percent remaining) ([2]; RLM, 30 min): 1%
Percentage turnover of test compounds (percent remaining) ([2]; RLM, 60 min): 0%
% Remaining at 60 min (+NADPH) ([2]; RLM): 0%
% Remaining at 60 min (−NADPH) ([2]; RLM): 105%
metabolism compared to ibogaine in the in vitro study ([2]; in vitro microsome study): metabolized faster than ibogaine
half-life at 10 μM [2]: < 5 min
total amount of noribogaine produced compared to ibogaine ([2]; short incubation period (~5 min)): comparable
Mean brain concentration [3, 4]: 11340 ng/g
Mean plasma concentration [3, 4]: 1229 ng/mL
Mean brain concentration [3, 5]: 6647 ng/g
Mean plasma concentration [3, 5]: 698 ng/mL
Mean brain concentration [3, 6]: 5363 ng/g
Mean plasma concentration [3, 6]: 620 ng/mL
Mean brain concentration [3, 7]: 3941 ng/g
Mean plasma concentration [3, 7]: 343 ng/mL
Mean brain concentration [3, 8]: 4684 ng/g
Mean plasma concentration [3, 8]: 473 ng/mL
AUClast ([3]; brain, analyte after CD3O-ibogamine 40 mg/kg i.p.): 16357.31 ng·h/g
AUC(0-t) ([3]; male, Wistar, rat, in vivo, ip, 40 mg/kg, AUClast, plasma, analyte after CD3O-ibogamine 40 mg/kg i.p.): 1700 ng·h/mL
Cmax [3, 9]: 11300 ng/g
Cmax [3, 10]: 1230 ng/mL
Tmax [3, 9]: 4.8 min
Tmax [3, 10]: 4.8 min
difference of plasma concentration versus ibogaine (lower for CD3O-ibogamine) ([3]; single i.p. dose 40 mg/kg): approximately 25%
maximum brain concentration as percent of the ibogaine concentration detected after its administration ([3]; single i.p. dose 40 mg/kg): ~43%
CLh, int (in vitro; HLM): 42 mL/min/kg
metabolic degradation, times faster compared to that of ibogaine (in vitro; HLM): more than 2 ×
Percentage turnover of test compounds (percent remaining) (in vitro; HLM, 0 min, 10 μM, +NADPH): 100%
Percentage turnover of test compounds (percent remaining) (in vitro; HLM, 5 min, 10 μM, +NADPH): 98%
Percentage turnover of test compounds (percent remaining) (in vitro; HLM, 15 min, 10 μM, +NADPH): 83%
Percentage turnover of test compounds (percent remaining) (in vitro; HLM, 30 min, 10 μM, +NADPH): 67%
Percentage turnover of test compounds (percent remaining) (in vitro; HLM, 60 min, 10 μM, +NADPH): 25%
% Remaining at 60 min (+NADPH) (in vitro; HLM, summary): 25%
% Remaining at 60 min (−NADPH) (in vitro; HLM, without NADPH): 105%
half-life (in vitro; human, microsomes, pH 7.4): 30 min

CCOc1ccc2[nH]c3c(c2c1)CCN1C[C@H]2C[C@H](CC)C1[C@H]3C2 [EtO-Ibogamine, 10-ethoxy-ibogamine]
% Remaining at 60 min (Buffer) [1]: 88%
CLh, int ([2]; RLM): 445 mL/min/kg
Percentage turnover of test compounds (percent remaining) ([2]; RLM, 0 min): 100%
Percentage turnover of test compounds (percent remaining) ([2]; RLM, 5 min): 77%
Percentage turnover of test compounds (percent remaining) ([2]; RLM, 15 min): 42%
Percentage turnover of test compounds (percent remaining) ([2]; RLM, 30 min): 3%
Percentage turnover of test compounds (percent remaining) ([2]; RLM, 60 min): 0%
% Remaining at 60 min (+NADPH) ([2]; RLM): 0%
% Remaining at 60 min (−NADPH) ([2]; RLM): 88%
half-life at 10 μM [2]: 6 min
Percentage turnover of test compounds (percent remaining) (in vitro; human, microsomes, 0 h, pH 7.4): 100%
Percentage turnover of test compounds (percent remaining) (in vitro; human, microsomes, 5 min, pH 7.4): 103%
Percentage turnover of test compounds (percent remaining) (in vitro; human, microsomes, 0.5 h, pH 7.4): 85%
% Remaining at 60 min (+NADPH) (in vitro; human, microsomes, 1 h, pH 7.4): 66%
% Remaining at 60 min (−NADPH) (in vitro; human, microsomes, 1 h, pH 7.4): 106%
Percentage turnover of test compounds (percent remaining) (in vitro; human, microsomes, 1 h, pH 7.4): 66%
Percentage turnover of test compounds (percent remaining) (in vitro; human, microsomes, […], pH 7.4): 98%
half-life (in vitro; human, microsomes, pH 7.4): > 60 min
CLh, int (in vitro; human, pH 7.4): 13 mL/min/kg
rate of conversion of the compound compared to that of ibogaine (in vitro; liver microsomes, species not given): essentially the same

— US12564597B2 (priority 2020, dated 2026)
